Data on two compounds can be found in patent US8536165B2, “Azabiphenylaminobenzoic acid derivatives as DHODH inhibitors” (Almirall, S.A., priority 2007, dated 2013).

One may read the IC50 as the point on the concentration scale where inhibition reaches its midpoint.

In one assay the target is human DHODH (Homo sapiens (Human), UniProt Q02127). As to the kind of experiment: Inhibition of Human DHODH Activity Assay. The conditions noted are these: chromogen reduction assay with DCIP, human enzyme extract, 10 min at room temperature; read-out: hDHODH IC50. The class given is biochemical. As for the experimental part:
DHODH activity and its inhibition were studied using a chromogen reduction assay with DCIP (2,6-dichlorophenol-indophenol). […] Enzyme extracts (8 μl, ˜1.5 μg of human protein) were incubated in 96-well plates. The assay mixture (200 μl) contained 200 μM CoQD, 100 μM L-DHO, 120 μM DCIP in the assay buffer (100 mM HEPES pH 8.0, 150 mM NaCl, 10% Glicerol, 0.05% Triton X-100) and 2 μl of test compound. The compounds were dissolved in DMSO at a stock concentration of 1 mM, and tested at different concentrations […] to calculate an IC50 (concentration of inhibitor required for 50% of inhibition).
The reaction was initiated by adding the enzyme and then incubated for 10 min at room temperature before measuring DCIP reduction by counting a decrease in absorbance at 600 nm using standard instrumentation (Spectramax).
All reactions were carried out in duplicate and graphs, determining IC50 values for each compound, were plotted using the ABase software.

In another assay the test system is HIV. The conditions noted are these: at concentration that can be obtained with conventional dosing; cited from earlier work.

Chain of human DHODH (Q02127 whole entry): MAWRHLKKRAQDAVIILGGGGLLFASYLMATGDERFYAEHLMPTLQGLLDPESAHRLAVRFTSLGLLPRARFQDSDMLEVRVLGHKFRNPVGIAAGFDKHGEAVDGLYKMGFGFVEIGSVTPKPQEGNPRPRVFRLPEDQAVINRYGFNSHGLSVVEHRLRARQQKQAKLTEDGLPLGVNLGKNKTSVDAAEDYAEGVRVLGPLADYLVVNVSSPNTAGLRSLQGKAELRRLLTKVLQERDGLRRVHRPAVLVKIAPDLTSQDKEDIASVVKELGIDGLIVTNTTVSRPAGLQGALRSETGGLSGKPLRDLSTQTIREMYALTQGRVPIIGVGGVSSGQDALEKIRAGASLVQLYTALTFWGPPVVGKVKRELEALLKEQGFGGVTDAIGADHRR

With `O=C(O)c1cc(C2CC2)ccc1Nc1cnc(-c2cc(C(F)(F)F)ccc2F)nc1` [Example 104, 5-Cyclopropyl-2-(2-(2-fluoro-5-(trifluoromethyl)phenyl)pyrimidin-5-ylamino)benzoic acid], the IC50 on human DHODH came out at 21 nM. For `Cc1oncc1C(=O)Nc1ccc(C(F)(F)F)cc1` [Leflunomide], in the assay with HIV, the “reduction of HIV replication” value is given as “about 75%”.
